Measurements taken from patent publication US10829522B2, “Peptide inhibiting colonization by pathogenic bacteria, and colonization inhibitor including same” (OSAKA UNIVERSITY, priority 2016, dated 2020).

Tests used:
[1] = target: ΔN28-CofB; test: Isothermal titration calorimetry, interaction with ΔN28-CofB; format: binding, enterotoxigenic Escherichia coli (ETEC); conditions: ITC; for Kd: 25° C., 20 mM Tris-HCl (pH 8.0), 150 mM NaCl, ΔN28-CofB in terms of trimer, read-out: dissociation constant Kd value; for binding affinity to ΔN28-CofB compared with the binding affinity between CofJ and ΔN28-CofB: stronger than CofJ
Procedure: The expression and purification methods were carried out according to past papers (Fukakusa, S, et al. Acta Cryst. 2012, D68, 1418-1429; Kawahara, K, et al. J. Mol. Biol, 2016, 428, 1209-1226).
Interaction analysis was performed using CofB, CofJ and ΔN24-CofJ prepared by the above methods. An isothermal titration calorimeter Microcal iTC 200 (manufactured by GE Healthcare) was used for analysis of the interaction between the secretory protein CofJ and ΔN28-CofB. A 0.59 mM CofJ solution was charged in a titration syringe and a 28.5 μM (in terms of trimer) ΔN28-CofB solution was charged in a measuring cell, respectively, and the interaction of them was evaluated by directly observing heat changes that occur upon dropping the CofJ solution into the ΔN28-CofB solution. Titration conditions were such that the initial dropping amount was 1 μL, the dropping amount at the second and subsequent times was 2 μL, and dropping was performed 20 times in total every 120 seconds. The measurement temperature was 25° C., and the solvent was 20 mM Tris-HCl (pH 8.0), 150 mM NaCl. An exothermic change was observed by dropping the CofJ solution, which converged to the same level as the heat of dilution as the titration progressed. As a result of analysis of the obtained data using an analysis software Origin (Microcal), binding of CofJ and ΔN28-CofB was observed. The dissociation constant Kd value of both was 0.2 μM.
Next, in order to investigate the contribution to binding to pili in the N-terminal region (1 to 24) of the secretory protein CofJ, analysis of the interaction between ΔN24-CofJ and ΔN28-CofB was carried out using an isothermal titration calorimeter Microcal iTC 200 (manufactured by GE Healthcare). A 0.59 mM ΔN24-CofJ solution was charged in a titration syringe and a 28.5 μM (in terms of trimer) ΔN28-CofB solution was charged in a measuring cell, respectively, and the interaction of them was evaluated by directly observing heat changes that occur upon dropping the ΔN24-CofJ solution into the ΔN28-CofB solution. No change in caloric value due to dropping of the ΔN24-CofJ solution was observed.
Furthermore, in order to investigate the contribution to binding to pili in the N-terminal region (1 to 24) of the secretory protein CofJ, analysis of the interaction between a synthetic peptide consisting of 24 amino acid residues at the N terminal of CofJ (CofJ^1-24 peptide) purchased from Scrum Co., Ltd. and ΔN28-CofB was carried out using an isothermal titration calorimeter Microcal iTC200 (manufactured by GE Healthcare) in the same manner as described above. A 2 mM CofJ^1-24 peptide solution was charged in a titration syringe and a 33.9 μM (in terms of trimer) ΔN28-CofB solution was charged in a measuring cell, respectively, and the interaction of them was evaluated by directly observing heat changes that occur upon dropping the CofJ^1-24 peptide solution into the ΔN28-CofB solution. An exothermic change was observed by dropping the CofJ^1-24 peptide solution, which converged to the same level as the heat of dilution as the titration progressed. As a result of analysis of the obtained data using an analysis software Origin, binding of the CofJ^1-24 peptide and ΔN28-CofB was observed. The dissociation constant Kd value of both was 4 μM.
Next, in order to investigate the binding specificity of the CofJ^1-24 peptide, analysis of the interaction between a synthetic random peptide (CofJpepR) purchased from Scrum Co., Ltd. and ΔN28-CofB was carried out using an isothermal titration calorimeter Microcal iTC 200 (manufactured by GE Healthcare). A 2 mM random peptide solution was charged in a titration syringe and a 28.5 μM (in terms of trimer) ΔN28-CofB solution was charged in a measuring cell, respectively, and the interaction of them was evaluated by directly observing heat changes that occur upon dropping the […] into the ΔN28-CofB solution. No change in caloric value due to dropping of the random peptide solution was observed. […]

[2] = system: binding of CofJ and Trx-His-ΔN28-CofB; test: Pull down assay using a Ni column, inhibition of CofB/CofJ binding; design: species or system enterotoxigenic Escherichia coli (ETEC); conditions: SDS-PAGE
Description: To examine whether the CofJ^1-24-GCN4 inhibitory peptide is capable of inhibiting the binding of CofB and CofJ, it was confirmed in the in vitro experiment system by pull down assay using a Ni column. For experiments, ΔN28-CofB (Trx-His-ΔN28-CofB), CofJ, CofJ^1-24-GCN4, a CofJ^1-24 peptide and a peptide (CofJpepR) in which the amino acid sequence of the CofJ^1-24 peptide was randomized, with added thioredoxin tag (Trx) and His tag, were used. The sequence of CofJpepR is […] (SEQ ID NO: 22).
Solutions mixed so that the concentration of Trx-His-ΔN28-CofB was 1 μM and the concentration of CofJ^1-24-GCN4 was (0, 0.5, 1.0, 2.0, 5.0, 10.0 μM) were allowed to stand still on ice overnight. Further, CofJ was mixed so that the final concentration became 1 μM, and the mixtures were allowed to stand still on ice for 1 hour, to obtain experiment samples. Each sample was applied to a Ni column equilibrated with 20 mM Tris-HCl, 150 mM NaCl, pH 8.0, and the column was washed with 20 mM Tris-HCl, 150 mM NaCl, 15 mM Imidazole, pH 8.0. Thereafter, elution was performed with 20 mM Tris-HCl, 150 mM NaCl, 300 mM Imidazole, pH 8.0, and the eluted fraction was confirmed by SDS-PAGE.
Also for the CofJ^1-24 peptide and CofJpepR, the inhibition ability thereof was investigated by the same method. Specifically, solutions mixed so that the concentration of Trx-His-ΔN28-CofB was 1 μM and the concentration of the CofJ^1-24 peptide and CofJpepR was 1000 μM were allowed to stand still on ice overnight. Further, CofJ was mixed so that the final concentration became 1 μM, and the mixtures were allowed to stand still on ice for 1 hour, to obtain experiment samples. The pull down assay was performed in the same manner as described above. […] From this, it is considered that CofJ^1-24-GCN4 can inhibit the binding between CofB and CofJ by strongly binding with CofB by trimerizing.
In order to investigate whether the CofJ^4-16-GCN4 inhibitory peptide can inhibit the binding of CofB and CofJ, it was confirmed in the in vitro experimental system by a pull down assay using a Ni column. For the experiment, ΔN28-CofB (Trx-His-ΔN28-CofB), CofJ and CofJ^4-16-GCN4, with added thioredoxin tag (Trx) and His tag (His), were used.
Solutions mixed so that the concentration of Trx-His-ΔN28-CofB was 1 μM and the concentration of CofJ^4-16-GCN4 was (0, 0.5, 1.0, 2.0, 5.0, 10.0 μM) were allowed to stand still on ice overnight. Further, CofJ was mixed so that the final concentration became 1 μM, and the mixtures were allowed to stand still on ice for 1 hour, to obtain experiment samples. Each sample was applied to a Ni column equilibrated with 20 mM Tris-HCl, 150 mM NaCl, pH 8.0, and the column was washed with 20 mM Tris-HCl, 150 mM NaCl, 15 mM Imidazole, pH 8.0. […]

[3] = system: HB101 cof adhesion to Caco2 cells; test: ETEC adhesion inhibitory activity using Caco2 cells; format: cell-based, Escherichia coli; conditions: 1, 10, 100 μg/mL
Procedure: First, Caco2 cells were dispersed using Dulbecco's Modified Eagle's Medium (DMEM) containing 50 μg/mL gentamicin and 10% fetal bovine serum, the cell concentration was measured using a blood cell counting chamber and diluted to 3.0×10^5 cells/mL. Dilution liquid was added to a 6-well plate each in an amount of 500 μL, and culture was performed by allowing the plate to stand still in a CO2 incubator at 5% CO2 and 37° C. for 48 hours. The cultured Caco2 cells were washed with PBS twice. After washing, DMEM containing 100 μg/mL ampicillin and 1% D-mannose was filtrated by passing through a 0.22 μm filter, then, the solution was added each in an amount of 500 μL to each well.
Next, a small amount of the glycerol stock of HB101 cof was scraped off and added to LB medium containing 100 μg/mL ampicillin, and shaking culture was carried out overnight at 25° C. The culture liquid was suitably diluted and OD660 of the culture liquid was calculated using a turbidimeter. The culture liquid was serially diluted and CFU (colony forming unit) was measured. From the measured CFU, the concentration (cells/mL) of HB101 cof at OD660=1.0 was calculated. This calculated value was used to determine the concentration of HB101 cof later. […]
ETEC adhesion inhibitory activity was evaluated in the same manner as in Example 9 using CofJ^4-16-GCN4. […]

[4] = peptide premixed at a concentration not lower than that of CofJ (1 μM), 0.5-10.0 μM tested
[5] = peptide 1000 μM (1000 times that of CofJ, 1 μM)

Substance | Kd [1] [nM] | binding affinity to ΔN28-CofB compared with the binding affinity between CofJ and ΔN28-CofB [1] | inhibition of the binding of CofJ and Trx-His-ΔN28-CofB [2, 4] | inhibition of colonization of HB101 cof to Caco2 cells [3] | binding to ΔN28-CofB (change in caloric value) ([1]; 28.5 μM ΔN28-CofB in cell) | inhibition of the binding of CofJ and Trx-His-ΔN28-CofB [2, 5]
CofJ^1-24-GCN4: GPLG, CofJ 1-24 sequence (SEQ ID NO: 1), linker TSGGG (SEQ ID NO: 9) and GCN4 sequence (SEQ ID NO: 6); expressed in E. coli | 40 | about 5 times | strongly inhibited | inhibits colonization of HB101 cof to Caco2 cells in concentration-dependent manner | – | –
CofJ^4-16-GCN4: GPLG, SSEGGAFTVNMPK (SEQ ID NO: 23), linker TSGGG (SEQ ID NO: 9) and GCN4 sequence (SEQ ID NO: 6); expressed in E. coli | 80 | about 2.5 times | strongly inhibited | inhibits colonization of HB101 cof to Caco2 cells in concentration-dependent manner | – | –
NPSGFDKSGSSTTRTPAMSVIVDE [CofJpepR, reference compound] | – | – | – | – | do not bind | can not be inhibited at all
SPSSSEGGAFTVNMPKTSTVDDIR [CofJ^1-24 peptide, reference compound] | 4000 | – | – | – | – | hardly inhibited
SSEGGAFTVNMPK [CofJ^4-16 peptide, reference compound] | 4000 | – | – | – | – | –
